Common to all, as to experiment: NCI-60 cell line screen, 48 h
In experiment [1] the test system is HCT-15.
Experiment [2] concerns UO-31.
Experiment [3] has as its system OVCAR-5.
For experiment [4], the system named is KM12.
Experiment [5] concerns COLO 205.
Experiment [6] concerns TK-10.
Experiment [7] concerns MDA-MB-231.
In experiment [8] the test system is OVCAR-4.
Experiment [9] deals with CCRF-CEM.
Experiment [10] has as its system SK-MEL-28.
The test system of experiment [11] is SK-OV-3.
In experiment [12] the test system is SN12C.
Experiment [13] relates to 786-0.
Experiment [14] relates to HOP-62.
For experiment [15], the system named is U-251.
Experiment [16] has as its system SK-MEL-2.
Experiment [17] has as its system HOP-92.
Experiment [18] has as its system SF-268.
In experiment [19] the test system is RPMI-8226.
Experiment [20] has as its system NCI-H522.

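Dose response: 5 concentrations. Exposure: 48 h. Format: 96-well plates. Endpoint: linear interpolation; highest concentration if not reached. GI50 = concentration required for 50% inhibition of growth.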 Calls of active or inactive are those of the source. Rule as the data show it: active = GI50 up to about 1.1 µM and inactive = higher. Some results are limits rather than exact numbers.

`COc1cc2c(cc1OC)CN1CCc3ccccc3CC1C2` (stereo not given): the GI50 in experiment [1] is 39.4 µM; in experiment [2], 22.9 µM (inactive); in experiment [3], > 100 µM (inactive); in experiment [4], 33.1 µM (inactive); in experiment [5], 25.1 µM (inactive); in [6], 13.7 µM (inactive). Further, the GI50 in experiment [7] is > 100 µM (inactive); in [8], 16.1 µM (inactive); in experiment [9], 36.9 µM (inactive); in experiment [10] it was 63.1 µM (inactive); in experiment [11], 53.5 µM (inactive); in [12], 40.7 µM (inactive). In addition, the GI50 in experiment [13] was 36.3 µM (inactive); in experiment [14] it was 65.8 µM (inactive); in experiment [15] it was 93.1 µM (inactive); in experiment [16], 34.3 µM (inactive); in [17] it was 12.5 µM (inactive).

Consider `COc1ccc(/C=C/C(=O)CCN2CCN(CCC(=O)/C=C/c3ccc(OC)cc3)CC2)cc1`, for which the GI50 was 8.53 µM in experiment [1]; 14.6 µM (inactive) in [2]; 17.9 µM (inactive) in [3]; 10.7 µM (inactive) in experiment [4]; 2.01 µM (inactive) in experiment [5]; 14.9 µM (inactive) in [6]. In addition, the GI50 in experiment [7] was 12.6 µM (inactive); in experiment [8], 22.8 µM (inactive); in [10] it was 13.6 µM (inactive); in experiment [11] it was 11.8 µM (inactive); in experiment [12], 12.6 µM (inactive); in [13] it was 3.4 µM (inactive). For the same compound, the GI50 was 20.6 µM (inactive) in experiment [14]; 17.4 µM (inactive) in [18]; 12.1 µM (inactive) in [15]; 19.4 µM (inactive) in experiment [16]; 18.6 µM (inactive) in experiment [17].

For `Fc1cccc(F)c1C1SCc2nc3cc4ccccc4cc3n21` (stereo not given), the GI50 in experiment [1] was 16 µM; in experiment [3], 64 µM (inactive); in experiment [4] it was 34 µM (inactive); in experiment [5], 31.2 µM (inactive); in [6], 96.6 µM (inactive); in experiment [7], 27.5 µM (inactive). Also, the GI50 in [8] is 3.16 µM (inactive); in [9], 22.4 µM (inactive); in experiment [10], 49.7 µM (inactive); in experiment [11], 91 µM (inactive); in experiment [12] it was 34.1 µM (inactive); in [13], 31.2 µM (inactive). Besides, the GI50 is 95.9 µM (inactive) in [14]; 52.2 µM (inactive) in experiment [18]; 30.7 µM (inactive) in experiment [15]; > 100 µM (inactive) in experiment [16]; 6.92 µM (inactive) in experiment [19]; 16.3 µM (inactive) in [17].

With `Cc1cc(C)c(C)c(-n2[nH]c(=O)n(C)c2=O)c1C`, the GI50 in experiment [1] was greater than 100 µM; in experiment [2] it was > 100 µM (inactive); in experiment [3], > 100 µM (inactive); in experiment [4], > 100 µM (inactive); in experiment [5], > 100 µM (inactive); in experiment [6] it was > 100 µM (inactive). In addition, the GI50 in experiment [7], in experiment [9], in [10], in [11], in experiment [12] and in experiment [13] was > 100 µM (inactive) each time. The GI50 in experiment [14], in experiment [18], in [15], in experiment [16], in [19] and in experiment [17] was > 100 µM (inactive) in each case.

Turning to `O=C1NCN(c2ccccc2)C12CCN(CC1COc3ccccc3O1)CC2` (stereo not given) [SPIROXATRINE], the GI50 is greater than 100 µM in experiment [1]; 50.7 µM (inactive) in experiment [2]; > 100 µM (inactive) in experiment [3]; > 100 µM (inactive) in experiment [5]; 46.9 µM (inactive) in [6]; 59.7 µM (inactive) in experiment [7]. Also, the GI50 in [20] was 91.8 µM (inactive); in [8], 33.4 µM (inactive); in experiment [9], > 100 µM (inactive); in experiment [10], > 100 µM (inactive); in experiment [11], 51.3 µM (inactive); in experiment [12], > 100 µM (inactive). For the same compound, the GI50 was 31.6 µM (inactive) in [13]; 22.5 µM (inactive) in experiment [14]; 65.2 µM (inactive) in experiment [18]; 31.3 µM (inactive) in [15]; 38.4 µM (inactive) in experiment [16]; > 100 µM (inactive) in experiment [19].

On to `N#Cc1c(-c2ccccc2)[nH]c(=O)n(C2OC(CO)C(O)C(O)C2O)c1=O` (stereo not given), for which the GI50 in experiment [1] is greater than 100 µM; in [2], > 100 µM (inactive); in experiment [3] it was > 100 µM (inactive); in experiment [4], > 100 µM (inactive); in [5], > 100 µM (inactive); in experiment [6], > 100 µM (inactive). Also, the GI50 in experiment [7], in experiment [8], in [9], in [10], in [11] and in experiment [12] was > 100 µM (inactive) throughout. Further, the GI50 in experiment [13], in [14], in [18], in [15], in [16] and in experiment [19] was > 100 µM (inactive) throughout. Moreover, the GI50 in experiment [17] was > 100 µM (inactive).

With `Cc1cccc2c(N)c3cccc(C(=O)NCC[N+](C)(C)Cc4ccc(S(C)(=O)=O)cc4)c3nc12`, the GI50 in experiment [1] was greater than 100 µM; in experiment [2] it was 75.9 µM (inactive); in experiment [3], > 95.1 µM (inactive); in [4], 64.6 µM (inactive); in experiment [5] it was 47.1 µM (inactive); in [6], > 89.1 µM (inactive). The GI50 is > 81.3 µM (inactive) in [7]; 41.4 µM (inactive) in experiment [8]; 7.03 µM (inactive) in experiment [9]; > 100 µM (inactive) in [10]; 33.6 µM (inactive) in experiment [11]; 2.9 µM (inactive) in experiment [12]. Moreover, the GI50 in [13] was 28 µM (inactive); in experiment [14], 27.7 µM (inactive); in experiment [18], 25.1 µM (inactive); in experiment [15], 45.6 µM (inactive); in [16], 98.4 µM (inactive); in experiment [19] it was 5.61 µM (inactive). Also, the GI50 in experiment [17] is 70 µM (inactive).

For `COC(=O)C1=CSC2(S1)C(C(=O)OC)=CSc1c2ss/c1=N\c1ccccc1` (stereo not given), the GI50 is 1.74 µM in [1]; 2.52 µM (inactive) in experiment [2]; 3.66 µM (inactive) in experiment [3]; 2.68 µM (inactive) in [4]; 2.16 µM (inactive) in [5]; 2.7 µM (inactive) in [6]. The GI50 was 2.07 µM (inactive) in experiment [7]; 1.25 µM (inactive) in experiment [20]; 1.87 µM (inactive) in [8]; 1.6 µM (inactive) in experiment [9]; 2.38 µM (inactive) in [10]; 2.72 µM (inactive) in experiment [11]. The GI50 in experiment [12] is 1.88 µM (inactive); in [13], 1.49 µM (inactive); in [14], 2.88 µM (inactive); in experiment [18], 3.02 µM (inactive); in experiment [15], 2.4 µM (inactive); in experiment [16] it was 2 µM (inactive). In experiment [19], the GI50 is 0.497 µM (active).

In the case of `NS(=O)(=O)c1nnc(NS(=O)(=O)c2ccc(F)cc2)s1`, the GI50 in experiment [1] was greater than 100 µM; in experiment [2], > 100 µM (inactive); in experiment [3] it was > 100 µM (inactive); in [4], > 100 µM (inactive); in [5] it was > 100 µM (inactive); in experiment [6] it was > 100 µM (inactive). Moreover, the GI50 in experiment [7], in experiment [8], in experiment [9], in [10], in [11] and in [12] was > 100 µM (inactive) throughout. For the same compound, the GI50 in experiment [13], in experiment [14], in experiment [18], in experiment [15], in [16] and in [19] was > 100 µM (inactive) in each case. In addition, in [17], the GI50 was > 100 µM (inactive).

For the compound `CC/C=N\N1C(N)=C(C#N)C(C#N)(C#N)C1CC` (stereo not given), the GI50 is 54.2 µM in experiment [1]; > 100 µM (inactive) in experiment [2]; > 100 µM (inactive) in experiment [3]; > 100 µM (inactive) in experiment [4]; > 100 µM (inactive) in experiment [5]; > 100 µM (inactive) in [6]. The GI50 is > 100 µM (inactive) in experiment [7]; > 100 µM (inactive) in experiment [20]; 91.2 µM (inactive) in [8]; 36.1 µM (inactive) in [9]; 56.2 µM (inactive) in experiment [10]; > 100 µM (inactive) in experiment [11]. The GI50 is > 100 µM (inactive) in experiment [12]; > 100 µM (inactive) in experiment [13]; > 100 µM (inactive) in [14]; > 100 µM (inactive) in experiment [18]; 58.6 µM (inactive) in [15]; > 100 µM (inactive) in [16]. In experiment [19], the GI50 is 83 µM (inactive).

On to `O=C(Nc1cccc2ccccc12)c1cc2ccccc2oc1=O`, for which the GI50 in [1] was greater than 100 µM; in experiment [3], 41.1 µM (inactive); in [4] it was > 100 µM (inactive); in experiment [5], > 100 µM (inactive); in experiment [7], 23.6 µM (inactive); in experiment [8] it was 78 µM (inactive). For the same compound, the GI50 in experiment [9] is > 100 µM (inactive); in experiment [10], > 100 µM (inactive); in experiment [11] it was 30.2 µM (inactive); in [12], > 100 µM (inactive); in experiment [13] it was 13.7 µM (inactive); in [14], 14.5 µM (inactive). In addition, the GI50 in experiment [18] was 23.3 µM (inactive); in [15], 34 µM (inactive); in [16], 40.6 µM (inactive); in experiment [19], > 100 µM (inactive); in experiment [17], > 100 µM (inactive).

Values taken from ChEMBL document CHEMBL1201862, “PubChem BioAssay data set” (2004).
